Where “and” joins values, the source holds several entries; their conditions need not be identical. Identical values can stand only once.
Target: T1, TbERK8 (Trypanosoma brucei brucei, UniProt Q38B88)
T1 sequence (Q38B88 1-442): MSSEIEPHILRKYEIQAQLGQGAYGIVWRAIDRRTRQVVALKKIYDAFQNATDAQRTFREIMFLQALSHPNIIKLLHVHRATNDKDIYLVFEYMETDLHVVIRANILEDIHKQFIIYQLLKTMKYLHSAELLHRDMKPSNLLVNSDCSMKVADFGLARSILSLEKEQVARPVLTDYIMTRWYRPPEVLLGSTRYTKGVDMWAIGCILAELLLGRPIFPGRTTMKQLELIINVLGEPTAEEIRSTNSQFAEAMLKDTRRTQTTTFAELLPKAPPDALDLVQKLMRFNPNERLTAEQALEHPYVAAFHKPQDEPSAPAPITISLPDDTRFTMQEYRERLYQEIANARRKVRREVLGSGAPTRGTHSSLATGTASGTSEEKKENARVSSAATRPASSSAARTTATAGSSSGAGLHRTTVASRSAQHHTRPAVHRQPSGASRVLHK
Test: Luciferase-based kinase inhibition assay (ATP luminescence), GST-tagged TbERK8 with MBP substrate
Type: biochemical
Set-up: raw luminescence, TbERK8: unit of the concentration uncertain
Settings: for raw luminescence, TbERK8: replicate wells; for Luminescence Raw (Kinase-Glo): TbERK8
Protocol: Escherichia coli strain Rosetta 2 (DE3) (Cat# 71397, MilliporeSigma, Burlington, MA) was transformed with the plasmid pGEX2T expressing the full-length hERK8 coding region or pGSTAg expressing the full-length TbERK8 coding region. One liter of Terrific Broth media containing 100 μg/ml Ampicillin and 30 μg/ml chloramphenicol in 2 L baffled flasks was inoculated with 25 mL from an overnight culture of Rosetta 2 strains harboring either the pGEX2T-hERK8 or pGSTAg-TbERK8 plasmid. Two baffled flasks were inoculated with each overnight strain and incubated and shaken at 175 RPM in a New Brunswick Innova 44R Incubator Shaker (Fischer Scientific, Pittsburgh, PA) at 37 °C until the cultures reached an O.D.600 of 0.94. Once the cultures in the flask reached the target O.D.600, the flasks were cooled to 4 °C in an ice water bath. The cooled cultures were induced by adding isopropyl β-D-1-thiogalactopyranoside (IPTG) to a final concentration of 0.1 mM and shaken at 16 °C for 16 hours at 175 RPM in a New Brunswick Innova 44R Incubator Shaker (Fischer Scientific, Pittsburgh, PA). On the next day, the cultures were pelleted by centrifugation at 9000 xg in a JLA 10.500 rotor (Beckman Coulter; Brea, CA), and the media was decanted. The pellet was flash-frozen in liquid nitrogen and then thawed on ice. The thawed pellet was resuspended in lysis buffer (25 mM Tris, 75 mM NaCl, 0.5% TritonX-100 and 0.5% Nonidet P-40, 1 mM phenylmethanesulfonyl fluoride, 1 mM benzamidine⋅HCl) and lysed using a microfluidizer M-110P from Microfluidics (Westwood, MA). The crude lysates were clarified by centrifugation at 140,000 xg in a 45Ti rotor (Beckman Coulter, Brea, CA) for 30 min at 4°C. The clarified lysate was loaded by gravity to a 3 mL glutathione agarose resin column (Cat# G-250–10, GOLDBIO, St. Louis, MO) formed in a 1.5 × 20 cm glass chromatography column (Cat# 7371522, Bio-Rad, Hercules, CA). The column was washed with 30 mL of PBS (pH 7.4) containing 1 mM DTT. Elution buffer (50 mM Tris buffer pH 8.0 containing 10 mM reduced glutathione and 1 mM DTT was added to the washed column), and 1 mL fractions were collected by gravity and examined by SDS-PAGE stained by Coomassie dye. Peak fractions pooled from the elution were dialyzed (4x 1:500 dilutions) in kinase buffer (30 mM Tris, pH 7.4, 10 mM MgCl2, 1 mM DTT, 5% glycerol).
We performed kinase assays in buffer K (30 mM Tris pH 7.4, 10 mM MgCl2, 1 mM DTT, 5% glycerol, 50 μM ATP, and 0.1 mg/mL BSA) at 30°C for 30 min in 30 μL reactions. GST-tagged HsERK8 and TbERK8 were tested using myelin basic protein (MBP) (Cat# 13–110, Millipore, Darmstadt, Germany) as the substrate at increasing concentrations to determine the optimal activity for the assay. ATP consumption was determined by adding equal volumes of the kinase assay reagent (Promega, Cat# V5601, Madison, WI) following the manufacturer’s protocol. Luminescence was measured using the microplate reader (SpectraMax L, Molecular Devices, Sunnyvale, CA).
These compounds were screened for kinase inhibition utilizing a luciferase-based assay. Briefly, the kinases were tested using MBP as the substrate at a 14-fold molar excess in 384-well flat-bottom white plates (BRANDTECH Scientific, Cat# 781681, Essex, CT). These compounds were tested at concentrations ranging from […] to 150 nM. The kinases plus MBP substrate reactions were incubated with each inhibitor for 30 minutes at 30°C. Equal volumes of kinase assay mix Promega (Cat# V5601, Madison, WI) were added to the kinase/inhibitor reaction after 30 minutes, following the manufacturer’s protocol. ATP luminescence was measured using a microplate reader (SpectraMax L, Molecular Devices, Sunnyvale, CA). IC50 values were calculated from assays done in triplicate by fitting the data using Prism 8.1.1 (GraphPad).

**Q.** What does the source list for `C[C@]12C=CC(=O)C=C1CC[C@@H]1[C@@H]2[C@@H](O)C[C@@]2(C)[C@H]1CC[C@]2(O)C(=O)CO` [Prednisolone]?
**A.** IC50: > 10 mM; raw luminescence, TbERK8 (0.00015 (unit uncertain) compound, sheet ADP_ATP_glo081724 (3)): 151.546 RLU and 115.356 RLU and 183.213 RLU; raw luminescence, TbERK8 (0.00015 (unit uncertain) compound, sheet Kinase_glo 08142024 (2)): 851.739 RLU and 832.717 RLU and 648.843 RLU; raw luminescence, TbERK8 (0.00015 (unit uncertain) compound, sheet Kinase_glo_080924_IFPS (2)): 2863.49 RLU and 2847.77 RLU and 2549.07 RLU; raw luminescence, TbERK8 (0.00061 (unit uncertain) compound, sheet ADP_ATP_glo081724 (3)): 126.666 RLU and 99.523 RLU and 185.475 RLU; raw luminescence, TbERK8 (0.00061 (unit uncertain) compound, sheet Kinase_glo 08142024 (2)): 699.567 RLU and 777.766 RLU and 826.377 RLU; raw luminescence, TbERK8 (0.00061 (unit uncertain) compound, sheet Kinase_glo_080924_IFPS (2)): 1033.1 RLU and 1001.66 RLU and 918.564 RLU; raw luminescence, TbERK8 (0.00244 (unit uncertain) compound, sheet ADP_ATP_glo081724 (3)): 151.546 RLU and 108.57 RLU and 214.879 RLU; raw luminescence, TbERK8 (0.00244 (unit uncertain) compound, sheet Kinase_glo 08142024 (2)): 716.475 RLU and 665.751 RLU and 646.73 RLU; raw luminescence, TbERK8 (0.00244 (unit uncertain) compound, sheet Kinase_glo_080924_IFPS (2)): 2143.15 RLU and 2092.68 RLU and 2029.79 RLU; raw luminescence, TbERK8 (0.00977 (unit uncertain) compound, sheet ADP_ATP_glo081724 (3)): 255.593 RLU and 147.022 RLU and 271.426 RLU; raw luminescence, TbERK8 (0.00977 (unit uncertain) compound, sheet Kinase_glo 08142024 (2)): 437.494 RLU and 490.331 RLU and 469.196 RLU; raw luminescence, TbERK8 (0.00977 (unit uncertain) compound, sheet Kinase_glo_080924_IFPS (2)): 2030.86 RLU and 2806.27 RLU and 2958.99 RLU; raw luminescence, TbERK8 (0.03906 (unit uncertain) compound, sheet ADP_ATP_glo081724 (3)): 165.118 RLU and 117.618 RLU and 199.046 RLU; raw luminescence, TbERK8 (0.03906 (unit uncertain) compound, sheet Kinase_glo 08142024 (2)): 667.865 RLU and 653.07 RLU and 765.085 RLU; raw luminescence, TbERK8 (0.03906 (unit uncertain) compound, sheet Kinase_glo_080924_IFPS (2)): 2637.83 RLU and 2496.34 RLU and 2622.11 RLU; raw luminescence, TbERK8 (0.15625 (unit uncertain) compound, sheet ADP_ATP_glo081724 (3)): 334.759 RLU and 251.069 RLU and 300.831 RLU; raw luminescence, TbERK8 (0.15625 (unit uncertain) compound, sheet Kinase_glo 08142024 (2)): 1037.73 RLU and 1041.95 RLU and 1113.81 RLU; raw luminescence, TbERK8 (0.15625 (unit uncertain) compound, sheet Kinase_glo_080924_IFPS (2)): 2180.42 RLU and 2133.34 RLU and 2264.78 RLU; raw luminescence, TbERK8 (0.62500 (unit uncertain) compound, sheet ADP_ATP_glo081724 (3)): 495.353 RLU and 366.425 RLU and 545.114 RLU; raw luminescence, TbERK8 (0.62500 (unit uncertain) compound, sheet Kinase_glo 08142024 (2)): 1265.98 RLU and 1276.55 RLU and 1342.07 RLU; raw luminescence, TbERK8 (0.62500 (unit uncertain) compound, sheet Kinase_glo_080924_IFPS (2)): 3642.09 RLU and 3777.07 RLU and 3651.3 RLU; raw luminescence, TbERK8 (2.50000 (unit uncertain) compound, sheet ADP_ATP_glo081724 (3)): 791.659 RLU and 658.208 RLU and 870.825 RLU; raw luminescence, TbERK8 (2.50000 (unit uncertain) compound, sheet Kinase_glo 08142024 (2)): 2855.33 RLU and 2339.64 RLU and 2348.09 RLU; raw luminescence, TbERK8 (2.50000 (unit uncertain) compound, sheet Kinase_glo_080924_IFPS (2)): 13901.1 RLU and 13588.9 RLU and 13357.6 RLU; raw luminescence, TbERK8 (10.00000 (unit uncertain) compound, sheet ADP_ATP_glo081724 (3)): 8500.16 RLU and 8653.97 RLU and 8624.56 RLU; raw luminescence, TbERK8 (10.00000 (unit uncertain) compound, sheet Kinase_glo 08142024 (2)): 38026 RLU and 38805.9 RLU and 42117.7 RLU; raw luminescence, TbERK8 (10.00000 (unit uncertain) compound, sheet Kinase_glo_080924_IFPS (2), signal = ATP left): 19789.8 RLU and 19980.7 RLU and 19481.5 RLU; Luminescence Raw (Kinase-Glo) (inhibitor 0.00976562 mM, sheet Sil_Pred3, read 3): 32992.2 and 33121 and 33174.9; Luminescence Raw (Kinase-Glo) (inhibitor 0.0195312 mM, sheet Sil_Pred3, read 3): 38593.5 and 41076.8 and 40952.6; Luminescence Raw (Kinase-Glo) (inhibitor 0.0390625 mM, sheet Sil_Pred3, read 3): 46486.1 and 45877 and 46038.6; Luminescence Raw (Kinase-Glo) (inhibitor 0.078125 mM, sheet Sil_Pred3, read 3): 44202 and 48636.7 and 49203.6; Luminescence Raw (Kinase-Glo) (inhibitor 0.15625 mM, sheet Sil_Pred3, read 3): 45380.3 and 46230.7 and 46420.5; Luminescence Raw (Kinase-Glo) (inhibitor 0.3125 mM, sheet Sil_Pred3, read 3): 39235.4 and 40486.4 and 39917.2; Luminescence Raw (Kinase-Glo) (inhibitor 0.625 mM, sheet Sil_Pred3, read 3): 39298.7 and 39928.9 and 40873; Luminescence Raw (Kinase-Glo) (inhibitor 0.00976562, sheet Sil_Pred1, read 1): 36007.1 and 35961.3 and 35122.3; Luminescence Raw (Kinase-Glo) (inhibitor 0.00976562, sheet Sil_Pred2, read 2): 32848.9 and 34114.2 and 33997.9; Luminescence Raw (Kinase-Glo) (inhibitor 0.0195312, sheet Sil_Pred1, read 1): 43841.6 and 45072.5 and 44815.8; Luminescence Raw (Kinase-Glo) (inhibitor 0.0195312, sheet Sil_Pred2, read 2): 39947.1 and 42452 and 42749.7; Luminescence Raw (Kinase-Glo) (inhibitor 0.0390625, sheet Sil_Pred1, read 1): 50695.1 and 50667.6 and 49805.8; Luminescence Raw (Kinase-Glo) (inhibitor 0.0390625, sheet Sil_Pred2, read 2): 46810.4 and 47329.1 and 47238.4; Luminescence Raw (Kinase-Glo) (inhibitor 0.078125, sheet Sil_Pred1, read 1): 49017.3 and 54222.7 and 54701.7; Luminescence Raw (Kinase-Glo) (inhibitor 0.078125, sheet Sil_Pred2, read 2): 44868.4 and 49845.5 and 51285.2; Luminescence Raw (Kinase-Glo) (inhibitor 0.15625, sheet Sil_Pred1, read 1): 51194.8 and 52235.4 and 51680.7; Luminescence Raw (Kinase-Glo) (inhibitor 0.15625, sheet Sil_Pred2, read 2): 47366.3 and 47915.2 and 47922.2; Luminescence Raw (Kinase-Glo) (inhibitor 0.3125, sheet Sil_Pred1, read 1): 44343.6 and 45716.6 and 43953.9; Luminescence Raw (Kinase-Glo) (inhibitor 0.3125, sheet Sil_Pred2, read 2): 41235.6 and 41775.2 and 41631; Luminescence Raw (Kinase-Glo) (inhibitor 0.625, sheet Sil_Pred1, read 1): 43960.8 and 44712.6 and 44414.7; Luminescence Raw (Kinase-Glo) (inhibitor 0.625, sheet Sil_Pred2, read 2): 40144.8 and 41517 and 41924
